Data taken from PubChem BioAssay (NCI).
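Briefly, cells in 96-well plates were exposed to five compound concentrations for 48 h, and endpoints were estimated by linear interpolation. TGI denotes the concentration required for complete inhibition of growth.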

Legend:
Test in all cases: NCI tumour cell line growth inhibition, 48 h
[1] = tested on: MDA-N
[2] = tested on: MALME-3M melanoma
[3] = tested on: HL-60(TB) leukemia
[4] = tested on: A549 NSCLC
[5] = tested on: K-562 leukemia
[6] = tested on: M14 melanoma
[7] = tested on: SNB-19 CNS
[8] = tested on: IGROV1 ovarian
[9] = tested on: 786-0 renal
[10] = tested on: SK-OV-3 ovarian
[11] = tested on: MDA-MB-231 breast
[12] = tested on: LOX IMVI melanoma
[13] = tested on: OVCAR-4 ovarian
[14] = tested on: SF-268 CNS
[15] = tested on: HS 578T breast
[16] = tested on: TK-10 renal
[17] = tested on: BT-549 breast
[18] = tested on: CCRF-CEM leukemia
[19] = tested on: HCC-2998 colon

| Compound | TGI [1] | TGI [2] | TGI [3] | TGI [4] | TGI [5] | TGI [6] | TGI [7] | TGI [8] | TGI [9] | TGI [10] | TGI [11] | TGI [12] | TGI [13] | TGI [14] | TGI [15] | TGI [16] | TGI [17] | TGI [18] | TGI [19] |
| --- | --- | --- | --- | --- | --- | --- | --- | --- | --- | --- | --- | --- | --- | --- | --- | --- | --- | --- | --- |
| COC(=O)C1CCC(=O)N1CN(C(C)=O)c1cc(OC)ccc1OC (stereo not given) | > 100 µM | > 100 µM | > 100 µM | > 100 µM | > 100 µM | > 100 µM | > 100 µM | > 100 µM | > 100 µM | > 100 µM | > 100 µM | > 100 µM | > 100 µM | > 100 µM | > 100 µM | > 100 µM |  |  |  |
| c1ccc2c(c1)nn1c3ccc4nonc4c3[n-][n+]21 | > 100 µM | > 100 µM | > 100 µM | > 100 µM | > 100 µM | > 100 µM | > 100 µM | > 100 µM | > 100 µM |  | > 100 µM | > 100 µM | > 100 µM |  |  |  | > 100 µM | > 100 µM | > 100 µM |
| Cc1c(O)c(OC2OC(CO)C(O)C(O)C2O)cc2c1CC[C@@H]1C2(C)C(=O)C[C@]2(C)[C@@H]([C@@](C)(O)C3CCC(C)(C)O3)[C@H](O)C[C@@]12C (stereo not given in full) |  | > 100 µM |  | > 100 µM | > 100 µM | > 100 µM | > 100 µM | > 100 µM | > 100 µM | > 100 µM | > 100 µM | > 100 µM | > 100 µM | > 100 µM |  | > 100 µM | > 100 µM | > 100 µM | > 100 µM |
| Cc1c(O)c(OC2OC(CO)C(O)C(O)C2O)cc2c1C=C[C@@H]1[C@@]2(C)C(=O)C[C@]2(C)[C@@H]([C@@](C)(O)C(O)/C=C/C(C)(C)O)[C@H](O)C[C@@]12C (stereo not given in full) | > 100 µM | > 100 µM | > 100 µM | > 100 µM | > 100 µM | > 100 µM | > 100 µM | > 100 µM | > 100 µM | > 100 µM | > 100 µM | > 100 µM | > 100 µM | > 100 µM |  | > 100 µM | > 100 µM | > 100 µM | > 100 µM |
| CC(C)(C)c1cc2c(c(C(C)(C)C)c1O)CC(=O)O2 | > 100 µM |  | 86.8 µM | > 100 µM | > 100 µM | 62.5 µM | > 100 µM | 89.3 µM | 94.1 µM | > 100 µM | 75.4 µM | > 100 µM | > 100 µM | > 100 µM | 97.3 µM | > 100 µM |  | 73.5 µM | 96.7 µM |
| S=C=Nc1ccc(CSc2nc3ccccc3[nH]2)cc1 | 40.7 µM | 32 µM | > 100 µM | 31 µM | > 100 µM |  | 86.1 µM | 33.7 µM | 37.5 µM | 40.3 µM | 51.6 µM | 35.6 µM | 31.6 µM | 37.8 µM | > 100 µM | 38.9 µM |  | 80.4 µM | 32.1 µM |
| O=C1c2c(O)cc(O)cc2C(C2OC(CO)C(O)C(O)C2O)c2cc(CO)cc(O)c21 (stereo not given) | > 100 µM | > 100 µM | > 100 µM | > 100 µM | > 100 µM | > 100 µM | > 100 µM | > 100 µM | > 100 µM | > 100 µM | > 100 µM |  | > 100 µM | > 100 µM |  | > 100 µM | > 100 µM |  | > 100 µM |
| O=C(CC(O)(C(F)(F)F)C(F)(F)Cl)CC(O)(C(F)(F)F)C(F)(F)Cl (stereo not given) | > 10 µM | 6.34 µM | > 10 µM | > 10 µM | > 10 µM | > 10 µM | > 10 µM | > 10 µM | > 10 µM | 4.69 µM | 5.43 µM | 7.34 µM | > 10 µM | > 10 µM | 6.69 µM | 9.9 µM |  | > 10 µM | > 10 µM |
| c1csc(-c2nccc3c2[nH]c2ccccc23)c1 | 35.4 µM | 47.2 µM | 55.9 µM | 49.2 µM | 63.8 µM | 31.6 µM | > 100 µM | 37.4 µM | 32.9 µM | 41.5 µM | 48.1 µM | 39.7 µM | 55.1 µM | 56.7 µM | > 100 µM | 48.7 µM |  | 51.5 µM | 39.6 µM |
| Cc1ccc(/C=C/C(=N/NC(=O)N/N=C(/C=C/c2ccc(C)cc2)C(C)C)C(C)C)cc1 | > 10 µM | > 10 µM | > 10 µM | > 10 µM | > 10 µM | > 10 µM | > 10 µM |  | > 10 µM |  | > 10 µM |  | 2.88 µM | > 10 µM |  | > 10 µM | > 10 µM | > 10 µM | > 10 µM |
| CCN(CC)Cc1ccccc1CC(=O)N1c2ccccc2C(=O)Nc2cccnc21 | > 100 µM | > 100 µM | > 100 µM | > 100 µM | > 100 µM | > 100 µM | > 100 µM | > 100 µM | > 100 µM | > 100 µM | > 100 µM | > 100 µM | > 100 µM | > 100 µM | > 100 µM | > 100 µM |  | > 100 µM | > 100 µM |
| O=C(O)Cc1ccc(Nc2nc3ccccc3nc2C(=O)O)cc1 | > 100 µM | > 100 µM | > 100 µM | > 100 µM |  | > 100 µM | > 100 µM | > 100 µM | > 100 µM | > 100 µM |  | > 100 µM | > 100 µM | > 100 µM | > 100 µM | > 100 µM | > 100 µM | > 100 µM |  |
| O=C(Cc1nc2sc3c(c2c(=O)[nH]1)CCCC3)Nc1ccccc1 |  | > 100 µM | > 100 µM | > 100 µM | > 100 µM | > 100 µM | > 100 µM | > 100 µM | > 100 µM | > 100 µM |  | > 100 µM | > 100 µM | > 100 µM |  | > 100 µM |  | > 100 µM | > 100 µM |
